Measurements from ChEMBL document CHEMBL1128438, “A priori prediction of activity for HIV-1 protease inhibitors employing energy minimization in the active site” (J Med Chem, 1995).

Tests used:
[1] = target: T1, Human immunodeficiency virus type 1 protease (Human immunodeficiency virus 1, UniProt Q72874); experiment: In vitro inhibition of HIV-1 protease
[2] = target: T1, Human immunodeficiency virus type 1 protease; experiment: Inhibition of HIV-1 protease was determined in vitro

| SMILES | IC50 [1] | IC50 [2] |
| --- | --- | --- |
| CC(C)(C)OC(=O)N[C@@H](Cc1ccccc1)[C@@H](O)C[C@@H](CCCc1ccccc1)C(=O)N[C@H]1c2ccccc2[C@@H](O)[C@H]1O | 0.19 nM | – |
| CC(C)(C)NC(=O)[C@@H]1C[C@@H]2CCCC[C@@H]2CN1C[C@@H](O)C[C@@H](Cc1ccccc1)C(=O)N[C@H]1c2ccccc2C[C@H]1O | – | 7.59 nM |
| CC(C)(C)OC(=O)N[C@@H](Cc1ccccc1)[C@@H](O)C[C@@H](Cc1ccccc1)C(=O)N[C@H]1c2ccccc2OC[C@H]1O | 0.18 nM | – |
| CC(C)(C)OC(=O)N[C@@H](Cc1ccccc1)[C@@H](O)CC(=O)NC1c2ccccc2C[C@H]1O (stereo not given in full) | – | 568 nM |
| CC(C)(C)OC(=O)N[C@@H](Cc1ccccc1)[C@@H](O)C[C@@H](Cc1ccccc1)C(=O)N[C@H](CO)c1ccccc1 | 38.6 nM | – |
| CC(C)(C)NC(=O)[C@@H]1C[C@@H]2CCCC[C@@H]2CN1CC(O)[C@H](Cc1ccccc1)NC(=O)OC(C)(C)C (stereo not given in full) | – | 3020 nM |
| CC(C)(C)OC(=O)N[C@@H](Cc1ccccc1)[C@@H](O)C[C@@H](Cc1ccccc1)C(=O)N[C@H]1c2ccccc2C[C@H]1O | 0.25 nM | – |
| CC(C)[C@H](NC(=O)[C@H](Cc1ccccc1)C[C@H](O)CN1C[C@H]2CCCC[C@H]2C[C@H]1C(=O)NC(C)(C)C)C(=O)Nc1ccc2ccccc2n1 | – | 52.8 nM |
| O=C(N[C@H]1c2ccccc2C[C@H]1O)[C@H](Cc1ccccc1)CC(O)C[C@@H](Cc1ccccc1)C(=O)N[C@H]1c2ccccc2C[C@H]1O | – | 0.692 nM |
| CC(C)(C)OC(=O)N[C@@H](Cc1ccccc1)[C@@H](O)C[C@@H](CC(=O)c1ccccc1)C(=O)N[C@H]1c2ccccc2C[C@H]1O | 5.42 nM | – |
| CC(C)(C)OC(=O)N[C@@H](Cc1ccccc1)[C@@H](O)C[C@@H](Cc1ccc(C(C)(C)C)cc1)C(=O)N[C@H]1c2ccccc2C[C@H]1O | 0.17 nM | – |
| CC(C)(C)OC(=O)N[C@@H](Cc1ccccc1)[C@@H](O)C[C@@H](Cc1ccncc1)C(=O)N[C@H]1c2ccccc2C[C@H]1O | 0.53 nM | – |
| CC(C)(C)OC(=O)N[C@@H](Cc1ccccc1)[C@H](O)CN[C@@H](Cc1ccccc1)C(=O)N[C@H]1c2ccccc2C[C@H]1O | – | 229 nM |
| C=CC[C@H](C[C@H](O)[C@H](Cc1ccccc1)NC(=O)OC(C)(C)C)C(=O)N[C@H]1c2ccccc2C[C@H]1O | 27.5 nM | – |
| C[C@@H](NC(=O)[C@H](Cc1ccccc1)C[C@H](O)[C@H](Cc1ccccc1)NC(=O)OC(C)(C)C)C1CCCCC1 | 146 nM | – |
| CC(C)(C)OC(=O)N[C@@H](Cc1ccccc1)[C@@H](O)/C=C(/Cc1ccccc1)C(=O)N[C@H]1c2ccccc2C[C@H]1O | – | 1.29 nM |
| CC(C)(C)OC(=O)N[C@@H](Cc1ccc(O)cc1)[C@@H](O)[C@@H]1CCC[C@H]1C(=O)NCc1ccccc1 | – | 589 nM |
| CC(C)(C)OC(=O)N[C@@H](Cc1ccccc1)[C@@H](O)[C@H](O)[C@H](Cc1ccccc1)NC(=O)OC(C)(C)C | – | 1370 nM |

| SMILES | IC50 [1] | IC50 [2] |
| --- | --- | --- |
| CC(C)(C)OC(=O)N[C@@H](Cc1ccccc1)[C@@H](O)C[C@@H](Cc1ccccc1)C(=O)NCc1ccccc1 | 114 nM | – |
| CC(C)(C)OC(=O)N[C@@H](Cc1ccccc1)[C@@H](O)C[C@@H](Cc1ccccc1)C(=O)N[C@H]1c2ccccc2CC[C@H]1O | 0.7 nM | – |
| CC(C)(C)OC(=O)N[C@@H](Cc1ccccc1)[C@@H](O)C[C@@H](Cc1ccccc1)C(=O)NCC1CCCCC1 | 30000 nM | – |
| CC(C)(C)NC(=O)[C@@H]1C[C@@H]2CCCC[C@@H]2CN1CC(O)CN1C[C@H]2CCCC[C@H]2C[C@H]1C(=O)NC(C)(C)C | – | 6760 nM |
| CC(C)(C)OC(=O)N[C@@H](Cc1ccccc1)[C@@H](O)C[C@@H](Cc1ccccc1)C(=O)N[C@@H]1CCc2ccccc21 | 34.2 nM | – |
| CC(C)(C)OC(=O)N[C@@H](Cc1ccccc1)[C@@H](O)C[C@@H](Cc1ccccc1)C(=O)N[C@H]1C=CC[C@H]1O | 9.53 nM | – |
| CC(C)(C)OC(=O)N[C@@H](Cc1ccccc1)[C@@H](O)C[C@@](C)(Cc1ccccc1)C(=O)N[C@H]1c2ccccc2C[C@H]1O | 7.7 nM | – |
| CC(C)(C)OC(=O)N[C@@H](Cc1ccccc1)[C@@H](O)C[C@]1(Cc2ccccc2)CCCN([C@H]2c3ccccc3C[C@H]2O)C1=O | – | 1270 nM |
| CC(C)(C)OC(=O)N[C@@H](Cc1ccccc1)[C@@H](O)CCC(=O)N[C@H]1c2ccccc2C[C@H]1O | 2930 nM | – |
| COC(=O)[C@@H]1Cc2ccccc2[C@@H]1NC(=O)[C@H](Cc1ccccc1)C[C@H](O)[C@H](Cc1ccccc1)NC(=O)OC(C)(C)C | 66.3 nM | – |
| CC(C)(C)OC(=O)N[C@@H](Cc1ccccc1)[C@@H](O)C[C@@H](Cc1ccccc1)C(=O)N[C@@]1(C)c2ccccc2C[C@H]1O | 212 nM | – |
| CC(C)(C)OC(=O)N[C@@H](Cc1ccccc1)[C@@H](O)C[C@@H](Cc1ccccc1)C(=O)N[C@H]1CCCC[C@H]1O | 122 nM | – |
| CC(C)(C)OC(=O)N[C@@H](Cc1ccccc1)[C@@H](O)C[C@@H](Cc1ccccc1)C(=O)N[C@@H]1c2ccccc2OC[C@@H]1O | 40.5 nM | – |
| CC(C)(C)OC(=O)N[C@@H](Cc1ccccc1)[C@@H](O)C[C@@H](Cc1ccccc1)C(=O)N[C@H](CO)Cc1ccccc1 | 690 nM | – |
| CC(C)(C)OC(=O)N[C@@H](Cc1ccccc1)[C@@H](O)C[C@@H](CSc1ccccc1)C(=O)N[C@H]1c2ccccc2C[C@H]1O | 0.25 nM | – |
| CC(C)[C@H](NC(=O)[C@H](Cc1ccccc1)C[C@H](O)[C@H](Cc1ccccc1)NC(=O)OC(C)(C)C)C(=O)O | 161 nM | – |
| CC(C)(C)OC(=O)CN(Cc1ccccc1)C[C@@H](O)[C@H](Cc1ccccc1)NC(=O)OC(C)(C)C | – | 4680 nM |
